This note sets out measurements from article PMC9138545, “Incorporation of Oxidized Phenylalanine Derivatives into Insulin Signaling Relevant Proteins May Link Oxidative Stress to Signaling Conditions Underlying Chronic Insulin Resistance” (Biomedicines, 2022).

The test system of test [1] is GLUT4 and vimentin in podocytes. The test can be described thus: Immunofluorescence of GLUT4 and vimentin in insulin-treated podocytes. The settings on record: for GLUT4 membrane localization: 400 nmol/l insulin for 10 min. It is filed as cell-based, human. On the procedure:
(§1) The conditionally immortalized human podocyte cell line (provided by Moin Saleem, University of Bristol, UK) was cultured in RPMI1640 medium (R8756, Sigma Aldrich, Budapest, Hungary) supplemented with 10% heat-inactivated FBS (16170-078, Gibco, Budapest, Hungary), insulin-transferrin-selenium supplement (41400-045, Gibco), 100 U/mL penicillin, 0.1 mg/mL streptomycin (P4333, Sigma), and […] (equimolar to the original p-Tyr content of the medium) para-, meta-, or ortho-Tyr. The cells were grown at 33 °C 5% CO2, and when they reached 40–60% confluency they were transferred to 37 °C to differentiate. Following the thermoswitching, cells were kept on RPMI1640 medium containing 2% FBS, antibiotics, and different tyrosines. Before every treatment, cells were incubated in serum-deprived medium overnight.
In a 6-well plate, 104 cells were cultured on glass coverslips washed with alcohol and dried under UV light. The podocyte cells were grown in RPMI1640 medium supplemented with 10% heat-inactivated FBS at 33 °C, 5% CO2. When they reached 60% confluence, the medium was changed to RPMI1640 medium containing 2% FBS and 112.05 nM of the different tyrosine isoforms, then the plates were transferred to 37 °C, 5% CO2 to allow the cells to differentiate. The different tyrosine isoforms were added to the maintenance medium. The cells were serum deprived overnight, then incubated with 400 nmol/l insulin for 10 min. After removal of the medium, the coverslips were washed twice with PBS. The cells were fixed at room temperature in 2% paraformaldehyde and 4% sucrose for 8 min, then permeabilized using 0.3% Trion X-100 in 1xPBS for 20 min and blocked in 2.5% BSA for 45 min [45]. The primary antibody was diluted in 1xPBS, and the cells were incubated in it for 60 min in humid conditions. The antibodies we used were mouse anti-WT1 antibody (H-1) (1:100, Santa Cruz Biotechnology, Dallas, TX, USA), chicken anti-vimentin antibody (1:100, Abcam), rabbit anti-glucose transporter GLUT4 antibody (1:100, Abcam, Cambridge, UK), mouse Insulin Receptor Substrate-1 antibody (1:100, Invitrogen, Waltham, MA, USA), and rabbit anti-phospho-Insulin Receptor Substrate-1 (pTyr612) antibody (1:10, Sigma). Coverslips were washed in PBS three times for 5 min in PBS and incubated in the fluorophore-conjugated secondary antibodies anti-goat, anti-chicken, secondary antibody Alexa fluor 647, anti-rabbit Alexa fluor 350, and anti-mouse Alexa Fluor 488 (1:10, Invitrogen) for 60 min. Samples were then washed in PBS three times for 5 min and mounted in Vectashield (Vector Laboratories). Images were taken with a Nikon Eclipse Ti2 microscope.

Another test deals with total proteins of cells. Nature of the test: HPLC of protein-bound tyrosines (incorporation into cellular proteins). It is filed as cell-based. The settings on record: cells grown on o-Tyr or m-Tyr; n = 5–10. Here is the method: Early passages of mouse embryo fibroblast (3T3-L1) (ATCC, Manassas, VA, US) were cultured in Dulbecco’s modified Eagle medium (DMEM, Sigma Aldrich, Budapest, Hungary, CAT number: D6046; Invitrogen, Waltham, MA, USA, CAT number: 41966-029) supplemented with 100 U/mL penicillin, 0.1 mg/mL streptomycin (Gibco, Budapest, Hungary, CAT number: 15070-063) and 10% heat-inactivated Fetal Bovine Serum (FBS, Gibco, CAT number: 16170-078), supplemented with 398 nM p-, m-, or o-Tyr (equimolar to the original p-Tyr content of the medium) purchased from Sigma (CAT number: para-Tyr: T8566, m-Tyr: T3629, o-Tyr: 93851). Media contained 25 or 5 mmol/L glucose (experiment dependent) pyruvate and L-glutamine. Cells were grown at 37 °C and 5% CO2. Adipocyte differentiation was achieved by DMEM supplemented with 10% FBS (Gibco, Csertex, Budapest, Hungary, CAT number: 10106-169) (FBS) and a […] insulin (Sigma Aldrich, Budapest, Hungary, CAT number: I 9278), […] isobuthylmethylxanthine (Sigma Aldrich, Budapest, Hungary, CAT number: I 5879), and 250 nmol/L dexamethasone (Sigma Aldrich, Budapest, Hungary, CAT number: 861871) containing cocktail. From day 4 onward, cultures were maintained in DMEM containing 1.5 μg/mL insulin and 10% FBS with a medium change every other day until experimental treatments were started. After 90% of the cell population reached the adipocyte phenotype, prior to all treatments, cells were incubated overnight in serum-deprived medium. Experimental treatment was performed in serum-deprived medium containing 200 or 400 nmol/L insulin, for 5 min.
as §1, with “overnight. […]” for “overnight.”
The total protein-bound cellular tyrosine content was measured by adding 200 μL of distilled water to the samples, followed by freezing overnight at −70 °C to achieve cell lysis. […]

As for `NC(Cc1ccccc1O)C(=O)O` (centres unmarked) [o-Tyr, ortho-tyrosine], in test [1], the vimentin filaments result is recorded as “thicker vimentin filaments” and the GLUT4 membrane localization result was “not characteristic in o-Tyr treated cells, which shows rather a perinuclear localization”. In the test with total proteins of cells, the “protein-bound o-Tyr/p-Tyr and m-Tyr/p-Tyr ratio” value is reported as “increased”; the “protein-bound p-Tyr/Phe ratio” value is given as “either a decrease or remained unchanged”.
For `N[C@@H](Cc1cccc(O)c1)C(=O)O` [m-Tyr, meta-tyrosine], in that order: “thicker vimentin filaments”, “slightly visible”, “increased” and “either a decrease or remained unchanged”.
